Results taken from patent publication US20220105188A1, “TARGET PROTEIN EED DEGRADATION-INDUCING DEGRADUCER, PREPARATION METHOD THEREOF, AND PHARMACEUTICAL COMPOSITION FOR PREVENTING OR TREATING DISEASES RELATED TO EED, EZH2, OR PRC2, COMPRISING SAME AS ACTIVE INGREDIENT” (KOREA RESEARCH INSTITUTE OF CHEMICAL TECHNOLOGY, priority 2019, published 2022).

Target: T1, EED (Homo sapiens, UniProt O75530)
T1 construct: 2×10^5 Hela cells were injected into a 12-well plate; endogenous in cells; host or cells: HeLa
T1 sequence (O75530 whole entry): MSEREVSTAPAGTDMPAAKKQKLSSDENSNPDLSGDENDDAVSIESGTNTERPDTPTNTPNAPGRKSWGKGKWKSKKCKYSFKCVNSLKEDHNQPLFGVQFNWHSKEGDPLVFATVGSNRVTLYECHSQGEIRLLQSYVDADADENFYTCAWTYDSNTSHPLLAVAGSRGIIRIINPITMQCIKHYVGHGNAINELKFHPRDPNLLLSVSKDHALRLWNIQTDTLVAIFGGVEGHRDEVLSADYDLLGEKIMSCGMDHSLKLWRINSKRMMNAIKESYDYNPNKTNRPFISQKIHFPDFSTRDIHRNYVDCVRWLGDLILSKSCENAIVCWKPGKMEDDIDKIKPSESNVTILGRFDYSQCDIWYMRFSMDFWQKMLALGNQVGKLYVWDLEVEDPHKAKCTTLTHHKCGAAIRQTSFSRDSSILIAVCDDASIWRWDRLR
Experiment: EED Proteolytic Activity Evaluation 2 (western blot, Hela cells)
Type: cell-based
Details: 1 nM, 10 nM, 100 nM and 1000 nM, 20 hours of treatment
Procedure: [Experiment 2] EED Proteolytic Activity Evaluation 2
In order to evaluate the EED proteolytic activity of the compound according to the present invention, an experiment was conducted as follows.
Specifically, 2×10^5 Hela cells were injected into a 12-well plate, and after 8 hours of stabilization, each well was treated with the example compounds to have final concentrations of 1 nM, 10 nM, 100 nM, and 1000 nM. One well was treated with the volume of DMSO contained in the sample corresponding to the highest concentration in the experimental group. After 20 hours of treatment, the cells were collected and lysed using 80 μl of SDS Lysis buffer (50 mM Tris pH8.0, 1% SDS, 1 mM EDTA, 0.5 mM PMSF, and protease inhibitor cocktail) and then sonication (30 sec on/59 sec off), 5 cycles) to prepare a cell lysate, followed by protein quantification through BCA, followed by Western blot, and the results are shown in Table 3. (Maximum EED degradation rate: A: >50%, B: 25-50%, C: <25%)

Structure (SMILES) | EED degradation rate (Maximum EED degradation rate)
O=C(CNc1ccc2c(c1)C(=O)N(C1CCC(=O)NC1=O)C2=O)NCCOCCOCCN1CCC(n2cc(-c3cnc(NCc4ccco4)n4cnnc34)cn2)CC1 (centres unmarked) [Example 129, 2-((2-(2,6-dioxopiperidin-3-yl)-1,3-dioxoisoindolin-5-yl)amino)-N-(2-(2-(2-(4-(4-(5-((furan-2-ylmethyl)amino)-[1,2,4]triazolo[4,3-c]pyrimidin-8-yl)-1H-pyrazol-1-yl)piperidin-1-yl)ethoxy)ethoxy)ethyl)acetamide] | C (C: <25%)
O=C1CCC(n2nnc3ccc(NCC(=O)N4CCC(CN5CCC(n6cc(-c7cnc(NCc8ccco8)n8cnnc78)cn6)CC5)CC4)cc3c2=O)C(=O)N1 (centres unmarked) [Example 128, 3-(6-((2-(4-((4-(4-(5-((furan-2-ylmethyl)amino)-[1,2,4]triazolo[4,3-c]pyrimidin-8-yl)-1H-pyrazol-1-yl)piperidin-1-yl)methyl)piperidin-1-yl)-2-oxoethyl)amino)-4-oxobenzo[d][1,2,3]triazin-3 (4H)-yl)piperidin-2,6-dione] | C (C: <25%)
Cc1cccc(F)c1CN1C[C@H](c2ccc(N3CCN(C(=O)COCCOCCOCCNC(=O)CNc4ccc5c(c4)C(=O)N(C4CCC(=O)NC4=O)C5=O)CC3)cc2)[C@@H](N(C)C)C1 (stereo partly drawn) [Example 122, N-(2-(2-(2-(2-(4-(4-((3S,4R)-4-(dimethylamino)-1-(2-fluoro-6-methylbenzyl)pyrrolidin-3-yl)phenyl)piperazin-1-yl)-2-oxoethoxy)ethoxy)ethoxy)ethyl)-2-((2-(2,6-dioxopiperidin-3-yl)-1,3-dioxoisoindolin-5-yl)amino)acetamide] | A (A: >50%)
Cc1cccc(F)c1CN1C[C@H](c2ccc(N3CCN(C(=O)CCCNc4cccc5c4C(=O)N(C4CCC(=O)NC4=O)C5=O)CC3)cc2)[C@@H](N(C)C)C1 (stereo partly drawn) [Example 123, 4-((4-(4-(4-((3S,4R)-4-(dimethylamino)-1-(2-fluoro-6-methylbenzyl)pyrrolidin-3-yl)phenyl)piperazin-1-yl)-4-oxobutyl)amino)-2-(2,6-dioxopiperidin-3-yl)isoindolin-1,3-dione] | B (B: 25-50%)

Continued, values first:

EED degradation rate (Maximum EED degradation rate) | Structure (SMILES)
A (A: >50%) | Cc1cccc(F)c1CN1C[C@H](c2ccc(N3CCN(CCC4CCN(C(=O)COc5cccc6c5C(=O)N(C5CCC(=O)NC5=O)C6=O)CC4)CC3)cc2)[C@@H](N(C)C)C1 (stereo partly drawn) [Example 151, 4-(2-(4-(2-(4-(4-((3S,4R)-4-(dimethylamino)-1-(2-fluoro-6-methylbenzyl)pyrrolidin-3-yl)phenyl)piperazin-1-yl)ethyl)piperidin-1-yl)-2-oxoethoxy)-2-(2,6-dioxopiperidin-3-yl)isoindolin-1,3-dione]
B (B: 25-50%) | Cc1cccc(F)c1CN1C[C@H](c2ccc(N3CCN(C(=O)CCC4CCN(C(=O)CNc5cccc6c5C(=O)N(C5CCC(=O)NC5=O)C6=O)CC4)CC3)cc2)[C@@H](N(C)C)C1 (stereo partly drawn) [Example 149, 4-((2-(4-(3-(4-(4-((3S,4R)-4-(dimethylamino)-1-(2-fluoro-6-methylbenzyl)pyrrolidin-3-yl)phenyl)piperazin-1-yl)-3-oxopropyl)piperidin-1-yl)-2-oxoethyl)amino)-2-(2,6-dioxopiperidin-3-yl)isoindolin-1,3-dione]
B (B: 25-50%) | Cc1cccc(F)c1CN1C[C@H](c2ccc(N3CCN(C(=O)CC4CCN(C(=O)COc5ccc6c(c5)C(=O)N(C5CCC(=O)NC5=O)C6=O)CC4)CC3)cc2)[C@@H](N(C)C)C1 (stereo partly drawn) [Example 145, 5-(2-(4-(2-(4-(4-((3S,4R)-4-(dimethylamino)-1-(2-fluoro-6-methylbenzyl)pyrrolidin-3-yl)phenyl)piperazin-1-yl)-2-oxoethyl)piperidin-1-yl)-2-oxoethoxy)-2-(2,6-dioxopiperidin-3-yl)isoindolin-1,3-dione]
B (B: 25-50%) | Cc1cccc(F)c1CN1C[C@H](c2ccc(N3CCN(CC4CCN(CC5CCN(c6ccc7c(c6)C(=O)N(C6CCC(=O)NC6=O)C7=O)CC5)CC4)CC3)cc2)[C@@H](N(C)C)C1 (stereo partly drawn) [Example 134, 5-(4-((4-((4-(4-((3S,4R)-4-(dimethylamino)-1-(2-fluoro-6-methylbenzyl)pyrrolidin-3-yl)phenyl)piperazin-1-yl)methyl)piperidin-1-yl)methyl)piperidin-1-yl)-2-(2,6-dioxopiperidin-3-yl)isoindolin-1,3-dione]
